The supplement of paper PMC10307832

Experiments:
Assay in all cases: relative viability (nuclei count vs DMSO), 5 days (fraction); higher = more cells survive
[1] = compound: C1CNCCC1C2=CC(=NN2)C3=CC=NC=C3 + CCNC(=O)c1noc(-c2cc(C(C)C)c(O)cc2O)c1-c1ccc(CN2CCOCC2)cc1 [Luminespib] (partner 0.01 µM)
Summary of the method: (§1)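 The day after seeding in 1536-well plates, lung cancer cell lines were treated by pin tool with a single drug, or with a fixed anchor-drug dose together with five library-drug doses (not always all listed) in √10 steps. After 5 days, a combined fix-and-stain solution (final 0.05% Triton X-100, 1% formaldehyde, 1 ug/ml Hoechst) was added. Nuclei counted on 4× images gave relative viability as treated counts over vehicle counts, reported as the median of duplicate plates.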

[2] = compound: C1CNCCC1C2=CC(=NN2)C3=CC=NC=C3 + CS(=O)(=O)CCNCc1ccc(-c2ccc3ncnc(Nc4ccc(OCc5cccc(F)c5)c(Cl)c4)c3c2)o1 [Lapatinib] (partner 2 µM)
Summary of the method: as §1

[3] = compound: O[C@H]1CC[C@H](Nc2ncc3nc(Nc4c(F)cc(F)cc4F)n([C@H]4CCOC4)c3n2)CC1 [Tanzisertib] + CS(=O)(=O)N1CCN(Cc2cc3nc(-c4cccc5[nH]ncc45)nc(N4CCOCC4)c3s2)CC1 [Pictilisib] (partner 1 µM)
Summary of the method: as §1

[4] = compound: C1CNCCC1C2=CC(=NN2)C3=CC=NC=C3 + NC(=O)Nc1cc(-c2cccc(F)c2)sc1C(=O)N[C@H]1CCCNC1 [AZD7762] (partner 0.2 µM)
Summary of the method: as §1

Cell Line	relative viability ([1]; first compound 0.08 µM)	relative viability ([1]; first compound 0.8 µM)	relative viability ([1]; first compound 2.53 µM)	relative viability ([1]; first compound 8 µM)	relative viability ([2]; first compound 0.08 µM)	relative viability ([2]; first compound 0.8 µM)	relative viability ([2]; first compound 2.53 µM)	relative viability ([2]; first compound 8 µM)	relative viability ([3]; first compound 0.08 µM)	relative viability ([3]; first compound 0.253 µM)	relative viability ([3]; first compound 0.8 µM)	relative viability ([3]; first compound 2.53 µM)	relative viability ([3]; first compound 8 µM)	relative viability ([4]; first compound 0.08 µM)	relative viability ([4]; first compound 0.8 µM)	relative viability ([4]; first compound 2.53 µM)	relative viability ([4]; first compound 8 µM)
SK-LU-1	0.204	0.209	0.206	0.212	0.944	0.799	0.849	0.814	0.58	0.539	0.565	0.633	0.527	–	–	–	–
LOU-NH91	0.368	0.339	0.334	0.399	0.766	0.739	0.826	0.854	0.516	0.544	0.573	0.51	0.443	0.797	0.739	0.853	0.773
LXF-289	0.804	0.589	0.69	0.705	0.934	0.937	0.864	0.91	0.887	0.745	0.459	0.735	0.804	1.15	1.14	1.15	1.1
NCI-H1299	–	–	–	–	0.96	0.948	1	0.891	0.762	0.713	0.699	0.893	0.729	–	–	–	–
HARA	0.647	0.72	0.793	0.687	0.755	0.874	0.736	0.701	0.475	0.337	0.321	0.436	0.412	0.328	0.306	0.295	0.258
LU99A	0.3	0.235	0.248	0.252	0.974	1.18	1.28	1.1	0.322	0.303	0.319	0.358	0.321	0.403	0.338	0.4	0.439
201T	1.03	1.04	1.13	1.01	0.975	0.978	0.994	0.986	0.748	0.676	0.684	0.687	0.649	0.645	0.65	0.654	0.562
HCC-827	0.571	0.522	0.749	0.57	0.207	0.174	0.22	0.166	0.876	0.937	1.14	0.885	0.536	0.248	0.155	0.271	0.223
NCI-H1666	0.921	1.11	1.05	1.01	0.522	0.739	0.845	0.625	0.494	0.588	0.414	0.546	0.439	0.829	0.847	1.04	1
NCI-H1915	0.746	0.876	0.791	0.734	0.964	1.09	1.02	0.946	1.19	0.958	0.946	0.95	0.732	0.704	0.745	0.722	0.704
NCI-H2009	0.995	1.09	1.02	1.01	0.998	1.01	1.07	0.888	0.965	0.794	0.972	0.882	0.563	–	–	–	–
ChaGo-K-1	0.512	0.555	0.709	0.568	–	–	–	–	0.657	0.819	0.845	0.627	0.482	0.886	0.876	0.926	0.753
COR-L 105	0.688	0.648	0.921	0.962	0.32	0.34	0.389	0.363	0.428	0.387	0.404	0.442	0.263	–	–	–	–
NCI-H2170	0.534	0.739	0.737	0.567	0.247	0.28	0.269	0.291	0.357	0.307	0.313	0.307	0.27	0.746	0.909	0.949	0.897
A549	–	–	–	–	0.863	1.02	1.14	0.952	0.564	0.496	0.588	0.534	0.428	–	–	–	–
SW 1573	–	0.215	0.244	0.189	1.03	1.21	1.17	1.25	0.63	0.373	0.481	0.584	0.505	–	–	–	–
NCI-H1975	0.166	0.214	0.193	0.254	0.905	1.08	1.05	0.83	0.297	0.266	0.304	0.295	0.309	0.758	0.599	0.742	0.679
Calu-6	–	–	–	–	0.987	1.17	1.12	1.05	0.901	1.01	0.865	1.03	0.976	–	–	–	–
NCI-H1648	–	–	–	–	–	–	–	–	–	–	–	–	–	0.632	0.716	–	0.78
NCI-H1623	0.401	0.5	0.564	0.551	–	–	–	–	–	–	–	–	–	–	–	–	–
NCI-H3122	0.109	0.114	0.1	0.104	0.972	1.03	1.04	1.04	0.655	0.591	0.587	0.572	0.743	0.948	1.06	0.966	1.01
NCI-H2347	0.366	0.5	0.511	0.564	0.956	0.735	0.977	0.996	0.781	0.444	0.501	0.478	0.715	0.763	0.494	0.745	0.76
HCC-44	0.923	1.58	1.32	1.06	1.04	1.14	1.04	0.966	0.638	0.701	0.565	0.442	0.569	0.976	1.04	1.04	1.04
HCC-78	–	–	–	–	0.723	–	0.871	0.86	0.215	0.175	0.23	0.219	0.192	0.644	–	0.888	0.723

Cell Line	relative viability ([1]; first compound 0.08 µM)	relative viability ([1]; first compound 0.8 µM)	relative viability ([1]; first compound 2.53 µM)	relative viability ([1]; first compound 8 µM)	relative viability ([2]; first compound 0.08 µM)	relative viability ([2]; first compound 0.8 µM)	relative viability ([2]; first compound 2.53 µM)	relative viability ([2]; first compound 8 µM)	relative viability ([3]; first compound 0.08 µM)	relative viability ([3]; first compound 0.253 µM)	relative viability ([3]; first compound 0.8 µM)	relative viability ([3]; first compound 2.53 µM)	relative viability ([3]; first compound 8 µM)	relative viability ([4]; first compound 0.08 µM)	relative viability ([4]; first compound 0.8 µM)	relative viability ([4]; first compound 2.53 µM)	relative viability ([4]; first compound 8 µM)
COR-L23	0.481	0.838	0.64	0.671	0.989	1.3	0.98	1.01	0.922	0.736	0.781	0.97	0.869	–	–	–	–
NCI-H1993	0.748	0.918	0.79	0.981	0.764	0.881	0.837	0.778	0.875	0.873	0.774	1.09	0.844	0.874	0.631	0.858	0.681
NCI-H2405	0.616	0.584	0.875	0.544	1.12	1.01	1.12	1.16	0.438	0.422	0.49	0.421	0.323	0.858	0.717	0.709	0.585
NCI-H2126	0.813	0.975	0.959	0.917	0.738	0.752	0.812	0.741	0.522	0.464	0.503	0.494	0.52	1.01	1.04	1.01	1.01
NCI-H1944	0.665	0.691	0.81	0.693	0.76	0.775	0.819	0.801	0.364	0.344	0.351	0.331	0.336	0.442	0.467	0.477	0.503
NCI-H2342	0.716	0.781	0.888	0.857	–	–	–	–	–	–	–	–	–	0.572	0.351	0.57	0.591
NCI-H358	0.478	0.279	0.369	0.388	0.388	0.463	0.43	0.462	0.393	0.389	0.331	0.293	0.332	0.487	0.626	0.553	0.54
NCI-H1734	0.183	0.201	0.195	0.219	0.856	1.07	1.15	1.07	0.534	0.405	0.45	0.454	0.382	0.445	0.59	0.652	0.584
NCI-H2023	0.709	0.878	0.867	0.832	0.615	0.909	1.03	0.974	0.259	0.197	0.246	0.243	0.233	–	–	–	–
LCLC-103H	1.06	0.909	0.982	0.961	–	–	–	–	0.698	0.642	0.648	0.616	0.608	0.724	0.738	0.904	0.837
NCI-H1563	0.536	0.497	0.518	0.494	0.747	0.885	0.896	1.03	0.661	0.638	0.572	0.601	0.607	–	–	–	–
HCC-366	–	–	–	–	0.864	1.13	1.04	1.04	0.138	0.15	0.134	0.128	0.114	0.271	0.361	0.287	0.345
NCI-H522	1.06	1.4	0.948	1.21	–	–	–	–	–	–	–	–	–	0.764	0.915	0.832	0.879
SW 900	0.187	0.172	0.165	0.168	–	–	–	–	–	–	–	–	–	0.687	–	0.718	0.738
SK-MES-1	0.716	0.82	0.736	0.613	0.423	0.381	0.439	0.421	0.378	0.338	0.366	0.34	0.245	–	–	–	–
EBC-1	–	–	–	–	0.202	0.219	0.209	0.239	0.468	0.454	0.405	0.338	0.275	–	–	–	–
NCI-H1650	0.246	0.209	0.201	0.223	0.561	0.751	0.821	0.736	0.656	0.538	0.666	0.586	0.438	–	–	–	–
IA-LM	–	–	–	–	0.809	1.13	0.926	0.898	0.375	0.335	0.339	0.255	0.362	–	–	–	–
NCI-H1703	–	–	–	–	1.03	1.51	1.12	1.03	0.272	0.245	0.258	0.224	0.218	–	0.104	–	0.133
NCI-H661	0.93	0.915	0.934	0.848	0.466	0.475	0.479	0.55	0.464	0.389	0.365	0.447	0.35	–	–	–	–
NCI-H2228	0.121	0.162	0.189	0.161	0.926	1.06	1.62	1.19	0.499	0.444	0.32	0.291	0.367	–	–	–	–
NCI-H520	0.213	0.196	0.214	0.177	0.763	0.897	0.92	0.835	0.372	0.322	0.29	0.287	0.297	–	–	–	–
NCI-H441	0.332	0.312	0.309	0.444	–	–	–	–	0.494	0.529	0.525	0.476	0.463	0.967	1.18	0.948	1.19
